These results are taken from ChEMBL document CHEMBL3108745, “Synthesis and structure-activity relationship of 3-hydroxypyridine-2-thione-based histone deacetylase inhibitors” (J Med Chem, 2013).

Usually IC50 stands for the point on the concentration scale where inhibition reaches its midpoint. What is called inhibition is the percentage by which the read-out fell short of the control.

In one data set the test system is DU-145. The experiment in a line: cells. The class given is functional, cell-based. The conditions noted are these: Homo sapiens, DU-145, 72 h.
Data set [1] addresses T1, Protein deacetylase HDAC6 (Homo sapiens) (UniProt Q9UBN7).
T1 sequence (whole entry): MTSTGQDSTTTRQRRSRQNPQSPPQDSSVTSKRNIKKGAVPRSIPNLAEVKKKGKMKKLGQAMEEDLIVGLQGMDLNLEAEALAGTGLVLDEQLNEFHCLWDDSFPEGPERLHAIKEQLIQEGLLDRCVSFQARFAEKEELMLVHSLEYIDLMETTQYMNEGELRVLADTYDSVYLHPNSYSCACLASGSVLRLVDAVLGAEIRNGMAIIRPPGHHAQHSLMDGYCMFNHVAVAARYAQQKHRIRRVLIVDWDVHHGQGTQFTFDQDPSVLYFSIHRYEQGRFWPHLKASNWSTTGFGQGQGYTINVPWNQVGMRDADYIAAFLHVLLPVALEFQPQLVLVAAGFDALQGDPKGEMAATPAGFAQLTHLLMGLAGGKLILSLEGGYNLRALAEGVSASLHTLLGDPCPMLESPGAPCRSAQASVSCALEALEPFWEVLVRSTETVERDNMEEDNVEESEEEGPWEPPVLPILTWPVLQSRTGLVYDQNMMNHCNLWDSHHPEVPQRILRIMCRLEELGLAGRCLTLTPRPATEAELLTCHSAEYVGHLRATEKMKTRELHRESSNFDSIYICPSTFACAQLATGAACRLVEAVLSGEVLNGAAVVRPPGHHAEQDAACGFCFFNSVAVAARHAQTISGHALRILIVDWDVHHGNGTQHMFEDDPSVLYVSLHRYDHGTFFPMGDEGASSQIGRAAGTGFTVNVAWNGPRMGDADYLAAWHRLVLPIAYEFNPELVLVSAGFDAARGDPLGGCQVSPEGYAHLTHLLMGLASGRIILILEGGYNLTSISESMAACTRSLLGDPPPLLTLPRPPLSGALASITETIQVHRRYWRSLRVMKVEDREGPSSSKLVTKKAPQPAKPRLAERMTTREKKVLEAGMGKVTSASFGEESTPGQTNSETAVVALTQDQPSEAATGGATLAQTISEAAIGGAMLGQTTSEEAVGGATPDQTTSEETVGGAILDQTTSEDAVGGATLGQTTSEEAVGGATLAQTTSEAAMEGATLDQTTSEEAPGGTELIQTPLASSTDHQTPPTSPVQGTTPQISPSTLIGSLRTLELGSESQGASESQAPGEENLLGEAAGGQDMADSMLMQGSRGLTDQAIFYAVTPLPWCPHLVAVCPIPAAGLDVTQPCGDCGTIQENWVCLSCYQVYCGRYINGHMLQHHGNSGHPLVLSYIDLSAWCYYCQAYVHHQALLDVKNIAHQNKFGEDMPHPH
The experiment in a line: Inhibition of HDAC6 in human LNCAP cells assessed as increase in tubulin acetylation at 5.43 to 20 uM after 4 hrs by Western blotting analysis. The class given is cell-based. For orientation: Immunoblotting shows a protein as a band on a membrane.

Data set [2] addresses 72 kDa type IV collagenase (Homo sapiens) (UniProt P08253). The data set can be described thus: Inhibition of MMP-2 (unknown origin) using omniMMP as fluorogenic substrate at 10 uM preincubated for 30 mins followed by substrate addition measured after 30 mins by fluorescence assay.
The target in data set [3] is Matrix metalloproteinase-9 (Homo sapiens) (UniProt P14780). The experiment in a line: Inhibition of MMP-9 (unknown origin) using omniMMP as fluorogenic substrate at 10 uM preincubated for 30 mins followed by substrate addition measured after 30 mins by fluorescence assay.
Chain of Matrix metalloproteinase-9 (Homo sapiens) (P14780 whole entry): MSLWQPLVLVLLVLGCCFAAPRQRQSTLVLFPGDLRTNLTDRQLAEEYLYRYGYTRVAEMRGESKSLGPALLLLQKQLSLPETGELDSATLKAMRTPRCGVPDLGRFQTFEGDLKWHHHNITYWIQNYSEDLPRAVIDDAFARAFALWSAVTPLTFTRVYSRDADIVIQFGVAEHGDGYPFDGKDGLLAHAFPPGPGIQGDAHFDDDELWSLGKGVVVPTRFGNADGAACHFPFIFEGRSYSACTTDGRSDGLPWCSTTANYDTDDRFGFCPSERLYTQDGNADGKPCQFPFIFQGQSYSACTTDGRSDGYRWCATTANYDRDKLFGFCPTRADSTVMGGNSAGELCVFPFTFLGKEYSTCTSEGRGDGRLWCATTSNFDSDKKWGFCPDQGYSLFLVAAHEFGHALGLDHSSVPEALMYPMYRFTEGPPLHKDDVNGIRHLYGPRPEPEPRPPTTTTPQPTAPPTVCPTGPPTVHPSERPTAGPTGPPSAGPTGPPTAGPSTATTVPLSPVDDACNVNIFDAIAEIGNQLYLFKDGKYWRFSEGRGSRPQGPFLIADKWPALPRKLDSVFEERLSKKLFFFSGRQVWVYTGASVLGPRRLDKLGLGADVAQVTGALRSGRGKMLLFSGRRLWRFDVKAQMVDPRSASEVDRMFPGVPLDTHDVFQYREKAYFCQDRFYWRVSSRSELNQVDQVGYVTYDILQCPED
The subject of data set [4] is LNCaP. The data set can be described thus: Potency index, ratio of tubastatin A IC50 to compound IC50 for human LNCAP cells. The class given is functional.
For another data set, the target named is T2, Histone deacetylase 8 (Homo sapiens, UniProt Q9BY41).
T2 sequence (Q9BY41 whole entry): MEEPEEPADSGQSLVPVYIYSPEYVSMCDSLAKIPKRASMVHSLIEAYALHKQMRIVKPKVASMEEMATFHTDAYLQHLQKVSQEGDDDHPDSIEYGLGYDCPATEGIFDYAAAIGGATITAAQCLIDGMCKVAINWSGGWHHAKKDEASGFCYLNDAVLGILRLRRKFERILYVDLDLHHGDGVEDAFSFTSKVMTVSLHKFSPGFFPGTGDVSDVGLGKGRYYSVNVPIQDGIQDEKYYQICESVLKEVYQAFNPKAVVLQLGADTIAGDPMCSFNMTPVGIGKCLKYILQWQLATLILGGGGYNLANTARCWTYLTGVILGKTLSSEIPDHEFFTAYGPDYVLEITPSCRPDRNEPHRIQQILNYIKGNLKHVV
The data set can be described thus: Inhibition of HDAC8 catalytic domain (unknown origin) expressed in Escherichia coli BL21 (DE3) using GRKacFGC as substrate after 60 mins by SAMDI mass spectrometric analysis.

A further data set has as its system Vero. The experiment in a line: Cytotoxicity against African green monkey Vero cells assessed as growth inhibition after 72 hrs by MTS assay. The class given is cell-based. The settings on record: Chlorocebus sabaeus.
The target of data set [5] is T3, Interstitial collagenase (Homo sapiens) (UniProt P03956).
T3 sequence (whole entry): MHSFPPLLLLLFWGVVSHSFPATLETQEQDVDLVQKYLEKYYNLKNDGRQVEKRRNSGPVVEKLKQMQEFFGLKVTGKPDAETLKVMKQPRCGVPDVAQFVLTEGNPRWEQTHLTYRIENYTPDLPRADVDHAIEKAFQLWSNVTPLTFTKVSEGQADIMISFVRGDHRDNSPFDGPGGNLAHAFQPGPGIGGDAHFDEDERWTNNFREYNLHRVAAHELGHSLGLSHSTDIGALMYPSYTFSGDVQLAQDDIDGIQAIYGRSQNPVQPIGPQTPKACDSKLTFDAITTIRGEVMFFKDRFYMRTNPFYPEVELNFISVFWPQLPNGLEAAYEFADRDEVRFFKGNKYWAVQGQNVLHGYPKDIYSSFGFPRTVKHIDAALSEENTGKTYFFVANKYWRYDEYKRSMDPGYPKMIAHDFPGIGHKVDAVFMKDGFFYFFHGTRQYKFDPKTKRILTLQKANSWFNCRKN
The data set can be described thus: Inhibition of MMP-1 (unknown origin) using omniMMP as fluorogenic substrate at 10 uM preincubated for 30 mins followed by substrate addition measured after 30 mins by fluorescence assay.

Data set [6] can be described thus: Aqueous solubility of the compound […] at room temperature by UV-vis spectrophotometric analysis. The class given is physicochemical.
The target in data set [7] is Collagenase 3 (Homo sapiens) (UniProt P45452). The experiment in a line: Inhibition of MMP-13 (unknown origin) using omniMMP as fluorogenic substrate at 10 uM preincubated for 30 mins followed by substrate addition measured after 30 mins by fluorescence assay.
The target of data set [8] is Stromelysin-1 (Homo sapiens) (UniProt P08254). The experiment in a line: Inhibition of MMP-3 (unknown origin) using omniMMP as fluorogenic substrate at 10 uM preincubated for 30 mins followed by substrate addition measured after 30 mins by fluorescence assay.
Chain of Stromelysin-1 (Homo sapiens) (P08254 100-477 limits assumed): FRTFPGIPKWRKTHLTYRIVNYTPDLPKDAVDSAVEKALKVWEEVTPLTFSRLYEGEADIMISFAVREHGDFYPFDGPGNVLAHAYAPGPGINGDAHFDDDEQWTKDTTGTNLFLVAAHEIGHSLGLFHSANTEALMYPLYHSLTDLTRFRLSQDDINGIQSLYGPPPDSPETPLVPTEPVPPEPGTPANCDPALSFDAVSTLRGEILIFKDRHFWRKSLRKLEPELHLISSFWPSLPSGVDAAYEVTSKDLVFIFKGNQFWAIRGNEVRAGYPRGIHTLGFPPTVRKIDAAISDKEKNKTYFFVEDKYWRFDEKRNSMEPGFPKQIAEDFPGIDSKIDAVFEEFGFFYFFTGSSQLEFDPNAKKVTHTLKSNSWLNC
In data set [9] the test system is LNCaP. The experiment in a line: cells. The settings on record: Homo sapiens, 72 h.
Description: Cytotoxicity against androgen-dependent human LNCAP cells assessed as growth inhibition after 72 hrs by MTS assay
In data set [10] the target is T4, Protein deacetylase HDAC6 (Homo sapiens, UniProt Q9UBN7).
T4 sequence (Q9UBN7 whole entry): T1 sequence (whole entry)
The experiment in a line: Inhibition of HDAC6 (unknown origin) expressed in Escherichia coli BL21 (DE3) using GRKacYGC as substrate after 60 mins by SAMDI mass spectrometric analysis.

In data set [11] the target is Histone deacetylase 1 (Homo sapiens) (UniProt Q13547). The experiment in a line: Inhibition of HDAC1 (unknown origin) expressed in Escherichia coli BL21 (DE3) using GRKacFGC as substrate at 10 uM after 60 mins by SAMDI mass spectrometric analysis relative to control.
Chain of Histone deacetylase 1 (Homo sapiens) (Q13547 whole entry): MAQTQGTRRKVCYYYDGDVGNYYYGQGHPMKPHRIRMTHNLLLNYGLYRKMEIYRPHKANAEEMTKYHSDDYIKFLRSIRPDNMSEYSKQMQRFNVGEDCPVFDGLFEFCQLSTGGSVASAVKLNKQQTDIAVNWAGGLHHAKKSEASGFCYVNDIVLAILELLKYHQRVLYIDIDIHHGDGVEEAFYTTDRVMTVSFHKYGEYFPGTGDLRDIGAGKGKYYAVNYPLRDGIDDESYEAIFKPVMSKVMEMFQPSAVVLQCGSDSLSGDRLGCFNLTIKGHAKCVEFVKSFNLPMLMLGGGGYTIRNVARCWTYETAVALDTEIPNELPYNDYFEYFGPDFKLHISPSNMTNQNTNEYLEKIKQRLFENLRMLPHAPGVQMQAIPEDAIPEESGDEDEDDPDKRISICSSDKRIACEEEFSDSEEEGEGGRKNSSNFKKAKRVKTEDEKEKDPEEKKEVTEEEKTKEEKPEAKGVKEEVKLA
The next data set deals with Histone deacetylase 2 (Homo sapiens, UniProt Q92769). The data set can be described thus: Inhibition of HDAC2 (unknown origin) expressed in Escherichia coli BL21 (DE3) using GRKacYGC as substrate after 60 mins by SAMDI mass spectrometric analysis.
Chain of Histone deacetylase 2 (Q92769 whole entry): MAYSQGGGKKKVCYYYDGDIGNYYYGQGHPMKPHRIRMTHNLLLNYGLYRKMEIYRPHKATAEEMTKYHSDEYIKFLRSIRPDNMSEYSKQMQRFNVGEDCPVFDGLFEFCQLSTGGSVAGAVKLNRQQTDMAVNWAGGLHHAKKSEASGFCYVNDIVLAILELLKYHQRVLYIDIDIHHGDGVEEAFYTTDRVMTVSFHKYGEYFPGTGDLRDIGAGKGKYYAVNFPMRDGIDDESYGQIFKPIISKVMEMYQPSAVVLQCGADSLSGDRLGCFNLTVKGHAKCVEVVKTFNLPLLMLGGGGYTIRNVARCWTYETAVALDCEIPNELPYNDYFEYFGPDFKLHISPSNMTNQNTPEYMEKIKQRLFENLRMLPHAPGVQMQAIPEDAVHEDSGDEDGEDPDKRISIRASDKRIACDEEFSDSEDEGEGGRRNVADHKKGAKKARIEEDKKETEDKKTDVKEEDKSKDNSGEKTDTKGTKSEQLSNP
Data set [12] addresses T5, Matrilysin (Homo sapiens) (UniProt P09237).
T5 sequence (whole entry): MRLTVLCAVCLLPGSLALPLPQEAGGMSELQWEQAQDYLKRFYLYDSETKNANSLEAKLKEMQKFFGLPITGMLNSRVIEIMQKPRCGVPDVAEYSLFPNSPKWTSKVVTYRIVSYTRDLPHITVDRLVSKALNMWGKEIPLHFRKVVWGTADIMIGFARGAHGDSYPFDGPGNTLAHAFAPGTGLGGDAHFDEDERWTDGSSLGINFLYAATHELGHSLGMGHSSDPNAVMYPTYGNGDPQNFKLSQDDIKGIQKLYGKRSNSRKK
The data set can be described thus: Inhibition of MMP-7 (unknown origin) using omniMMP as fluorogenic substrate at 10 uM preincubated for 30 mins followed by substrate addition measured after 30 mins by fluorescence assay.

The next data set relates to Jurkat. The data set can be described thus: cells. The conditions noted are these: Homo sapiens, 72 h. The class given is functional, cell-based.
The nature of data set [13]: Cytotoxicity against human Jurkat gamma1 cells assessed as growth inhibition after 72 hrs by MTS assay. The class given is functional, cell-based.
Data set [14] addresses Matrix metalloproteinase-14 (Homo sapiens) (UniProt P50281). The data set can be described thus: Inhibition of MMP-14 (unknown origin) using omniMMP as fluorogenic substrate at 10 uM preincubated for 30 mins followed by substrate addition measured after 30 mins by fluorescence assay.
Data set [15] has as its target T1, Protein deacetylase HDAC6 (Homo sapiens). The experiment in a line: Inhibition of HDAC6 in human LNCAP cells assessed as increase in tubulin acetylation at 3.49 to 20 uM after 4 hrs by Western blotting analysis. The class given is cell-based.

The source made the active and inactive calls. The rule behind the calls is not given here.

Chain of 72 kDa type IV collagenase (Homo sapiens) (P08253 110-660 limits assumed): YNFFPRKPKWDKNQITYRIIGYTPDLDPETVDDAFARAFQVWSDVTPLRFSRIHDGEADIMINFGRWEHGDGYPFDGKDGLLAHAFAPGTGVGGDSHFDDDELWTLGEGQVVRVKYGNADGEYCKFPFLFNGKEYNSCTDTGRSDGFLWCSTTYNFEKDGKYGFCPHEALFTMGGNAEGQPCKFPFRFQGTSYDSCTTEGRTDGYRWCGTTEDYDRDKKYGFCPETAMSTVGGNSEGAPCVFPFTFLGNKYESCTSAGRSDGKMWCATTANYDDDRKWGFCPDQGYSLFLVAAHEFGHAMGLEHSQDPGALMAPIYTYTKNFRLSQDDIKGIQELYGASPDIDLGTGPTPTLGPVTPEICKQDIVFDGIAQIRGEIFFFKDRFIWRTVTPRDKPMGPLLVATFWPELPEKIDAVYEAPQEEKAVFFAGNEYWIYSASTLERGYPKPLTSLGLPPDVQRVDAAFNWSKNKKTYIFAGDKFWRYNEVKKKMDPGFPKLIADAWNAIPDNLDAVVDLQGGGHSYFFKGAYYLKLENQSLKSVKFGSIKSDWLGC
Description for DU-145: Cytotoxicity against androgen-independent human DU145 cells assessed as growth inhibition after 72 hrs by MTS assay
Description for Jurkat: Cytotoxicity against human Jurkat cells assessed as growth inhibition after 72 hrs by MTS assay

`Oc1cccn(CCCCCn2cc(-c3ccccc3)nn2)c1=S`: the IC50 is 9.33 µM in the data set on DU-145; 0.917 µM against Histone deacetylase 8; > 20 µM in the data set with Vero; 5.43 µM in the data set on LNCaP [9]; 0.911 µM in data set [10]; 5.84 µM on Histone deacetylase 2. Moreover, the IC50 with Jurkat is 3.27 µM; in data set [13], 1.86 µM. Further, the inhibition result in [1] and in data set [7] was “Active” throughout. The inhibition result in data set [2], in [3], in [5], in data set [8], in data set [12] and in data set [14] was “inactive” throughout. For the same compound, in the data set with LNCaP [4], the “Ratio IC50” value came out at 2. In data set [6], the solubility result is “soluble”. The inhibition in [11] is < 20%.

Turning to `N#Cc1cccc(-c2cn(CCCCCn3cccc(O)c3=S)nn2)c1`, the IC50 in the data set on DU-145 was 5.03 µM; with Vero it was > 20 µM; in the data set on LNCaP [9], 3.49 µM; on Histone deacetylase 2 it was 3.68 µM; in the data set on Jurkat, 3.44 µM; in data set [13] it was 0.9 µM. For the same compound, the inhibition result in data set [2], in data set [3], in [5], in data set [8], in data set [12] and in data set [14] was “inactive” in each case. Besides, the inhibition result in data set [15] and in data set [7] was “Active” throughout. The Ratio IC50 in the data set with LNCaP [4] amounted to 3.1. Further, in [6], the solubility entry is listed as “soluble”. The inhibition in [11] was < 20%.
